According to patent US20110124692A1, “CRYSTALLINE FORMS OF THIAZOLIDINEDIONE COMPOUND AND ITS MANUFACTURING METHOD” (DAIICHI SANKYO COMPANY, LIMITED, priority 2008, published 2011):
Where a name gives a salt, the structure may show the parent alone. Read-outs that look alike come from different tables or passages of the source. Values belong to the compound of their own block, whether it stands above or below them.

Key:
[1] = Solubility in dilute hydrochloric acid (Test Example 3); format: physicochemical; settings: for The concentration (mg/g) of 5-(4-{[6-(4-amino-3,5-dimethylphenoxy)-1-methyl-1-H-benzimidazol-2-yl]methoxy}benzyl)-1,3-thiazolidine-2,4-dione in dilute hydrochloric acid: dilute hydrochloric acid 9.6 mg/g (pH about 0.7), 25° C., 500 mg in 5 mL, sampled after 6 minutes; for Concentration in dilute hydrochloric acid compared with the other crystalline forms: comparison of Table 7
Method: The concentration was measured under the test conditions below.
The concentration is calculated from the following formula.

[2] = in vivo; cited from earlier work
[3] = target: T1, peroxisome proliferator-activated receptor (PPAR) γ (Homo sapiens, UniProt P37231); settings: as disclosed in Patent Documents 1-5; cited from earlier work
T1 sequence (P37231 1-505): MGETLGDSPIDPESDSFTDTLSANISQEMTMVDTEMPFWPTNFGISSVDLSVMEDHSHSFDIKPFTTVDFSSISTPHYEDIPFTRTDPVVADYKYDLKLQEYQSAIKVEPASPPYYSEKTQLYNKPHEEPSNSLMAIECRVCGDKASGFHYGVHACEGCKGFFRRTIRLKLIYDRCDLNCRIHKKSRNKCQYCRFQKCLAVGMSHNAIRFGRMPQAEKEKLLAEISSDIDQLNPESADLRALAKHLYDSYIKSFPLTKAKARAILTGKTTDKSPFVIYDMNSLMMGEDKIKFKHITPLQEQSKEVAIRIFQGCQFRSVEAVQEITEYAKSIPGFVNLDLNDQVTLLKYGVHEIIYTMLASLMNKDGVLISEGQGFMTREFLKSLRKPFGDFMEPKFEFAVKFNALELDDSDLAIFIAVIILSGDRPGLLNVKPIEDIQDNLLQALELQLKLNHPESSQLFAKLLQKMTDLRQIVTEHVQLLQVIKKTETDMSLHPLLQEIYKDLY

human leukemia cells = settings: cited from earlier work
[4] = test system: human non-small-cell lung cancer; settings: cited from earlier work
human kidney cancer = settings: cited from earlier work
cancer cells [5] = settings: in combination with a VEGFR inhibitor or a Raf kinase inhibitor; cited from earlier work
[6] = test system: human colon cancer cell lines; settings: against human colon cancer cell lines; cited from earlier work
cancer cells [7] = settings: in combination with an epidermal growth factor receptor (EGFR) inhibitor; cited from earlier work
[8] = test system: human stomach cancer cells, human breast cancer cells, small cell lung cancer, pancreas cancer cells, prostate cancer cells, kidney cancer cells …; settings: medulloblastoma, sarcoma cells, multiple myeloma; cited from earlier work

SMILES: Cc1cc(Oc2ccc3nc(COc4ccc(CC5SC(=O)NC5=O)cc4)n(C)c3c2)cc(C)c1N (stereo not shown) [Compound (I), 5-(4-{[6-(4-amino-3,5-dimethylphenoxy)-1-methyl-1-H-benzimidazol-2-yl]methoxy}benzyl)-1,3-thiazolidine-2,4-dione]
Activity to ameliorate insulin resistance and to reduce blood sugar [2]: significant activity to ameliorate insulin resistance and to reduce blood sugar
Ability to activate PPAR γ [3]: significant ability to activate

SMILES: Cc1cc(Oc2ccc3nc(COc4ccc(CC5SC(=O)NC5=O)cc4)n(C)c3c2)cc(C)c1N (stereo not shown) [dihydrochloride of Compound (I), 5-(4-{[6-(4-amino-3,5-dimethylphenoxy)-1-methyl-1-H-benzimidazol-2-yl]methoxy}benzyl)-1,3-thiazolidine-2,4-dione dihydrochloride]
Growth inhibition of human leukemia cells (human leukemia cells): significantly inhibits the growth-inhibiting activity
Antitumor activity ([4]; alone): has antitumor activity
Antitumor activity in combination ([4]; in combination with an EGFR inhibitor): enhanced antitumor activity
Antitumor activity (human kidney cancer; alone): has antitumor activity
Antitumor activity in combination (human kidney cancer; in combination with a VEGFR inhibitor or a Raf kinase inhibitor): enhanced antitumor activity
Activity to inhibit the growth of cancer cells in combination (cancer cells [5]): synergistic activity to inhibit the growth of cancer cells
Antitumor activity in vivo [6]: significant antitumor activity in vivo
Activity to inhibit the growth of cancer cells in combination (cancer cells [7]): synergistic activity to inhibit the growth of cancer cells
Activity to inhibit the growth of cancer cells [8]: significant activity to inhibit the growth

Further lines, with some results ahead:

The concentration (mg/g) of 5-(4-{[6-(4-amino-3,5-dimethylphenoxy)-1-methyl-1-H-benzimidazol-2-yl]methoxy}benzyl)-1,3-thiazolidine-2,4-dione in dilute hydrochloric acid ([1]; monohydrate): 0.579 mg/g
SMILES: Cc1cc(Oc2ccc3nc(COc4ccc(CC5SC(=O)NC5=O)cc4)n(C)c3c2)cc(C)c1N (stereo not shown) [5-(4-{[6-(4-amino-3,5-dimethylphenoxy)-1-methyl-1-H-benzimidazol-2-yl]methoxy}benzyl)-1,3-thiazolidine-2,4-dione monohydrate]
Concentration in dilute hydrochloric acid compared with the other crystalline forms ([1]; listed as free-form crystalline form, monohydrate): higher concentration than all the dihydrochloride monohydrate crystalline forms

The concentration (mg/g) of 5-(4-{[6-(4-amino-3,5-dimethylphenoxy)-1-methyl-1-H-benzimidazol-2-yl]methoxy}benzyl)-1,3-thiazolidine-2,4-dione in dilute hydrochloric acid ([1]; dihydrochloride monohydrate): 0.325 mg/g
SMILES: Cc1cc(Oc2ccc3nc(COc4ccc(CC5SC(=O)NC5=O)cc4)n(C)c3c2)cc(C)c1N (stereo not shown) [Crystalline form A manufactured according to Example 4] [5-(4-{[6-(4-amino-3,5-dimethylphenoxy)-1-methyl-1-H-benzimidazol-2-yl]methoxy}benzyl)-1,3-thiazolidine-2,4-dione dihydrochloride monohydrate]
Concentration in dilute hydrochloric acid compared with the other crystalline forms ([1]; dihydrochloride monohydrate): highest concentration among the dihydrochloride monohydrate crystalline forms

The concentration (mg/g) of 5-(4-{[6-(4-amino-3,5-dimethylphenoxy)-1-methyl-1-H-benzimidazol-2-yl]methoxy}benzyl)-1,3-thiazolidine-2,4-dione in dilute hydrochloric acid ([1]; dihydrochloride monohydrate): 0.276 mg/g
SMILES: Cc1cc(Oc2ccc3nc(COc4ccc(CC5SC(=O)NC5=O)cc4)n(C)c3c2)cc(C)c1N (stereo not shown) [Crystalline form manufactured according to Example (2-1)] [5-(4-{[6-(4-amino-3,5-dimethylphenoxy)-1-methyl-1-H-benzimidazol-2-yl]methoxy}benzyl)-1,3-thiazolidine-2,4-dione dihydrochloride monohydrate]
